ChEMBL document CHEMBL4651402, “Screening of ~5500 FDA-approved drugs and clinical candidates for anti-SARS-CoV-2 activity” (2021)
pIC50: −log10 of the molar value.

System: SARS-CoV-2
Experiment: microbe, parasite or virus in culture
Format: functional, organism-based, Chlorocebus sabaeus, Vero C1008
Settings: Severe acute respiratory syndrome coronavirus 2, Vero C1008, 48 h; read-out: IC50

SMILES	pIC50
Nc1ccc2cc3ccc(N)cc3nc2c1 [PROFLAVINE]	< 4.60
c1ccc2c(c1)Sc1ccccc1N2CC1CN2CCC1CC2 (stereo unspecified) [MEQUITAZINE]	< 4.00
N=C(N)c1ccc(C=C2c3ccccc3-c3ccccc32)cc1 [PARANYLINE]	< 4.00
C#CC1(OC(C)=O)CCC2C3CCC4=C/C(=N/O)CCC4C3CCC21CC (stereo unspecified)	< 4.00
CN(C)CCCN1c2ccccc2Sc2ccccc21 [PROMAZINE]	< 4.00
CCN(CCO)CCCC(C)Nc1ccnc2cc(Cl)ccc12 (stereo unspecified) [HYDROXYCHLOROQUINE]	~4.77
Oc1cc2c(cc1O)[C@H]1c3ccccc3CN[C@@H]1CC2 [DIHYDREXIDINE]	< 4.00
O=C1c2c(O)cccc2Cc2cccc(O)c21 [ANTHRALIN]	< 4.00
CCOC(=O)Oc1c(OC)cc(C(=O)OC2CC3CN4CCc5c([nH]c6cc(OC)ccc56)C4CC3C(C(=O)OC)C2OC)cc1OC (stereo unspecified)	< 4.00
Cc1cc2nc3c(=O)[nH]c(=O)nc-3n(C[C@H](O)[C@H](O)[C@H](O)CO)c2cc1C [RIBOFLAVIN]	< 4.30
CO[C@H]1CC[C@H](n2c([C@@H]3CCCC(=O)N3c3ccc(F)c(F)c3)nc3cc(-c4c(C)noc4C)ccc32)CC1 [INOBRODIB]	< 4.00
CN1CCC(=C2c3ccccc3Sc3ccccc32)CC1 [PIMETHIXENE]	< 4.00
CC[C@H]1CN2CC[C@H]1C[C@H]2[C@H](O)c1ccnc2ccc(OC)cc12 [HYDROQUININE]	< 4.60
CC(C)[C@H](N/C(=N\S(=O)(=O)c1ccc(Cl)cc1)N1C[C@@H](c2ccccc2)C(c2ccc(Cl)cc2)=N1)C(N)=O	< 4.30
COc1cccc2c1C(=O)c1c(O)c3c(c(O)c1C2=O)C[C@@](O)(C(=O)CO)C[C@@H]3O[C@H]1C[C@H](N)[C@H](O)[C@H](C)O1 [DOXORUBICIN]	~4.48
COc1cc2c(cc1OC)C(c1cccc(Cl)c1)=NN=C(C)C2 [GIRISOPAM]	< 4.00

Same assay, conditions: Severe acute respiratory syndrome coronavirus 2, Vero C1008, 48 h; read-out: pIC50 (converted)

SMILES	IC50 [µM]
Nc1ccc2cc3ccc(N)cc3nc2c1 [PROFLAVINE]	> 25.1
c1ccc2c(c1)Sc1ccccc1N2CC1CN2CCC1CC2 (stereo unspecified) [MEQUITAZINE]	> 100
N=C(N)c1ccc(C=C2c3ccccc3-c3ccccc32)cc1 [PARANYLINE]	> 100
C#CC1(OC(C)=O)CCC2C3CCC4=C/C(=N/O)CCC4C3CCC21CC (stereo unspecified)	> 100
CN(C)CCCN1c2ccccc2Sc2ccccc21 [PROMAZINE]	> 100
CCN(CCO)CCCC(C)Nc1ccnc2cc(Cl)ccc12 (stereo unspecified) [HYDROXYCHLOROQUINE]	~17
Oc1cc2c(cc1O)[C@H]1c3ccccc3CN[C@@H]1CC2 [DIHYDREXIDINE]	> 100
O=C1c2c(O)cccc2Cc2cccc(O)c21 [ANTHRALIN]	> 100
CCOC(=O)Oc1c(OC)cc(C(=O)OC2CC3CN4CCc5c([nH]c6cc(OC)ccc56)C4CC3C(C(=O)OC)C2OC)cc1OC (stereo unspecified)	> 100
Cc1cc2nc3c(=O)[nH]c(=O)nc-3n(C[C@H](O)[C@H](O)[C@H](O)CO)c2cc1C [RIBOFLAVIN]	> 50.1
CO[C@H]1CC[C@H](n2c([C@@H]3CCCC(=O)N3c3ccc(F)c(F)c3)nc3cc(-c4c(C)noc4C)ccc32)CC1 [INOBRODIB]	> 100
CN1CCC(=C2c3ccccc3Sc3ccccc32)CC1 [PIMETHIXENE]	> 100
CC[C@H]1CN2CC[C@H]1C[C@H]2[C@H](O)c1ccnc2ccc(OC)cc12 [HYDROQUININE]	> 25.1
CC(C)[C@H](N/C(=N\S(=O)(=O)c1ccc(Cl)cc1)N1C[C@@H](c2ccccc2)C(c2ccc(Cl)cc2)=N1)C(N)=O	> 50.1
COc1cccc2c1C(=O)c1c(O)c3c(c(O)c1C2=O)C[C@@](O)(C(=O)CO)C[C@@H]3O[C@H]1C[C@H](N)[C@H](O)[C@H](C)O1 [DOXORUBICIN]	~33.1
COc1cc2c(cc1OC)C(c1cccc(Cl)c1)=NN=C(C)C2 [GIRISOPAM]	> 100

System: not listed separately
Experiment: in vitro
Settings: chlorocebus sabaeus, Vero E6 (Vero C1008) cells, CC50

SMILES	CC50 at 48 h [µM]
Nc1ccc2cc3ccc(N)cc3nc2c1 [PROFLAVINE]	~6.61
c1ccc2c(c1)Sc1ccccc1N2CC1CN2CCC1CC2 (stereo unspecified) [MEQUITAZINE]	7.76
N=C(N)c1ccc(C=C2c3ccccc3-c3ccccc32)cc1 [PARANYLINE]	2.92
C#CC1(OC(C)=O)CCC2C3CCC4=C/C(=N/O)CCC4C3CCC21CC (stereo unspecified)	20.9
CN(C)CCCN1c2ccccc2Sc2ccccc21 [PROMAZINE]	25.7
CCN(CCO)CCCC(C)Nc1ccnc2cc(Cl)ccc12 (stereo unspecified) [HYDROXYCHLOROQUINE]	47.9
Oc1cc2c(cc1O)[C@H]1c3ccccc3CN[C@@H]1CC2 [DIHYDREXIDINE]	18.6
O=C1c2c(O)cccc2Cc2cccc(O)c21 [ANTHRALIN]	> 100
CCOC(=O)Oc1c(OC)cc(C(=O)OC2CC3CN4CCc5c([nH]c6cc(OC)ccc56)C4CC3C(C(=O)OC)C2OC)cc1OC (stereo unspecified)	8.91
Cc1cc2nc3c(=O)[nH]c(=O)nc-3n(C[C@H](O)[C@H](O)[C@H](O)CO)c2cc1C [RIBOFLAVIN]	> 50.1
CO[C@H]1CC[C@H](n2c([C@@H]3CCCC(=O)N3c3ccc(F)c(F)c3)nc3cc(-c4c(C)noc4C)ccc32)CC1 [INOBRODIB]	3.16
CN1CCC(=C2c3ccccc3Sc3ccccc32)CC1 [PIMETHIXENE]	25.7
CC[C@H]1CN2CC[C@H]1C[C@H]2[C@H](O)c1ccnc2ccc(OC)cc12 [HYDROQUININE]	> 25.1
CC(C)[C@H](N/C(=N\S(=O)(=O)c1ccc(Cl)cc1)N1C[C@@H](c2ccccc2)C(c2ccc(Cl)cc2)=N1)C(N)=O	16
COc1cccc2c1C(=O)c1c(O)c3c(c(O)c1C2=O)C[C@@](O)(C(=O)CO)C[C@@H]3O[C@H]1C[C@H](N)[C@H](O)[C@H](C)O1 [DOXORUBICIN]	64.6
COc1cc2c(cc1OC)C(c1cccc(Cl)c1)=NN=C(C)C2 [GIRISOPAM]	> 100

Same assay, conditions: chlorocebus sabaeus, Vero E6 (Vero C1008) cells, pCC50

SMILES	CC50 at 48 h [µM]
Nc1ccc2cc3ccc(N)cc3nc2c1 [PROFLAVINE]	~6.61
c1ccc2c(c1)Sc1ccccc1N2CC1CN2CCC1CC2 (stereo unspecified) [MEQUITAZINE]	7.76
N=C(N)c1ccc(C=C2c3ccccc3-c3ccccc32)cc1 [PARANYLINE]	2.88
C#CC1(OC(C)=O)CCC2C3CCC4=C/C(=N/O)CCC4C3CCC21CC (stereo unspecified)	20.9
CN(C)CCCN1c2ccccc2Sc2ccccc21 [PROMAZINE]	25.7
CCN(CCO)CCCC(C)Nc1ccnc2cc(Cl)ccc12 (stereo unspecified) [HYDROXYCHLOROQUINE]	47.9
Oc1cc2c(cc1O)[C@H]1c3ccccc3CN[C@@H]1CC2 [DIHYDREXIDINE]	18.6
O=C1c2c(O)cccc2Cc2cccc(O)c21 [ANTHRALIN]	> 100
CCOC(=O)Oc1c(OC)cc(C(=O)OC2CC3CN4CCc5c([nH]c6cc(OC)ccc56)C4CC3C(C(=O)OC)C2OC)cc1OC (stereo unspecified)	8.91
Cc1cc2nc3c(=O)[nH]c(=O)nc-3n(C[C@H](O)[C@H](O)[C@H](O)CO)c2cc1C [RIBOFLAVIN]	> 50.1
CO[C@H]1CC[C@H](n2c([C@@H]3CCCC(=O)N3c3ccc(F)c(F)c3)nc3cc(-c4c(C)noc4C)ccc32)CC1 [INOBRODIB]	3.16
CN1CCC(=C2c3ccccc3Sc3ccccc32)CC1 [PIMETHIXENE]	25.7
CC[C@H]1CN2CC[C@H]1C[C@H]2[C@H](O)c1ccnc2ccc(OC)cc12 [HYDROQUININE]	> 25.1
CC(C)[C@H](N/C(=N\S(=O)(=O)c1ccc(Cl)cc1)N1C[C@@H](c2ccccc2)C(c2ccc(Cl)cc2)=N1)C(N)=O	15.8
COc1cccc2c1C(=O)c1c(O)c3c(c(O)c1C2=O)C[C@@](O)(C(=O)CO)C[C@@H]3O[C@H]1C[C@H](N)[C@H](O)[C@H](C)O1 [DOXORUBICIN]	64.6
COc1cc2c(cc1OC)C(c1cccc(Cl)c1)=NN=C(C)C2 [GIRISOPAM]	> 100

System: SARS-CoV-2
Experiment: microbe, parasite or virus in culture
Settings: Severe acute respiratory syndrome coronavirus 2, Vero C1008, 48 h

SMILES	pIC50
Nc1ccc2cc3ccc(N)cc3nc2c1 [PROFLAVINE]	~4.82
c1ccc2c(c1)Sc1ccccc1N2CC1CN2CCC1CC2 (stereo unspecified) [MEQUITAZINE]	5.11
N=C(N)c1ccc(C=C2c3ccccc3-c3ccccc32)cc1 [PARANYLINE]	5.46
C#CC1(OC(C)=O)CCC2C3CCC4=C/C(=N/O)CCC4C3CCC21CC (stereo unspecified)	< 4.00
CN(C)CCCN1c2ccccc2Sc2ccccc21 [PROMAZINE]	4.79
CCN(CCO)CCCC(C)Nc1ccnc2cc(Cl)ccc12 (stereo unspecified) [HYDROXYCHLOROQUINE]	~4.94
Oc1cc2c(cc1O)[C@H]1c3ccccc3CN[C@@H]1CC2 [DIHYDREXIDINE]	5.10
O=C1c2c(O)cccc2Cc2cccc(O)c21 [ANTHRALIN]	< 4.00
CCOC(=O)Oc1c(OC)cc(C(=O)OC2CC3CN4CCc5c([nH]c6cc(OC)ccc56)C4CC3C(C(=O)OC)C2OC)cc1OC (stereo unspecified)	< 4.00
Cc1cc2nc3c(=O)[nH]c(=O)nc-3n(C[C@H](O)[C@H](O)[C@H](O)CO)c2cc1C [RIBOFLAVIN]	~4.95
CO[C@H]1CC[C@H](n2c([C@@H]3CCCC(=O)N3c3ccc(F)c(F)c3)nc3cc(-c4c(C)noc4C)ccc32)CC1 [INOBRODIB]	< 4.00
CN1CCC(=C2c3ccccc3Sc3ccccc32)CC1 [PIMETHIXENE]	< 4.00
CC[C@H]1CN2CC[C@H]1C[C@H]2[C@H](O)c1ccnc2ccc(OC)cc12 [HYDROQUININE]	4.81
CC(C)[C@H](N/C(=N\S(=O)(=O)c1ccc(Cl)cc1)N1C[C@@H](c2ccccc2)C(c2ccc(Cl)cc2)=N1)C(N)=O	< 4.00
COc1cccc2c1C(=O)c1c(O)c3c(c(O)c1C2=O)C[C@@](O)(C(=O)CO)C[C@@H]3O[C@H]1C[C@H](N)[C@H](O)[C@H](C)O1 [DOXORUBICIN]	5.09
COc1cc2c(cc1OC)C(c1cccc(Cl)c1)=NN=C(C)C2 [GIRISOPAM]	< 4.00

Same assay, conditions: Severe acute respiratory syndrome coronavirus 2, Vero C1008, 48 h, read-out: pIC50 (converted)

SMILES	IC50 [µM]
Nc1ccc2cc3ccc(N)cc3nc2c1 [PROFLAVINE]	~14.8
c1ccc2c(c1)Sc1ccccc1N2CC1CN2CCC1CC2 (stereo unspecified) [MEQUITAZINE]	7.76
N=C(N)c1ccc(C=C2c3ccccc3-c3ccccc32)cc1 [PARANYLINE]	3.47
C#CC1(OC(C)=O)CCC2C3CCC4=C/C(=N/O)CCC4C3CCC21CC (stereo unspecified)	> 100
CN(C)CCCN1c2ccccc2Sc2ccccc21 [PROMAZINE]	16.2
CCN(CCO)CCCC(C)Nc1ccnc2cc(Cl)ccc12 (stereo unspecified) [HYDROXYCHLOROQUINE]	~11.5
Oc1cc2c(cc1O)[C@H]1c3ccccc3CN[C@@H]1CC2 [DIHYDREXIDINE]	7.94
O=C1c2c(O)cccc2Cc2cccc(O)c21 [ANTHRALIN]	> 100
CCOC(=O)Oc1c(OC)cc(C(=O)OC2CC3CN4CCc5c([nH]c6cc(OC)ccc56)C4CC3C(C(=O)OC)C2OC)cc1OC (stereo unspecified)	> 100
Cc1cc2nc3c(=O)[nH]c(=O)nc-3n(C[C@H](O)[C@H](O)[C@H](O)CO)c2cc1C [RIBOFLAVIN]	~11.2
CO[C@H]1CC[C@H](n2c([C@@H]3CCCC(=O)N3c3ccc(F)c(F)c3)nc3cc(-c4c(C)noc4C)ccc32)CC1 [INOBRODIB]	> 100
CN1CCC(=C2c3ccccc3Sc3ccccc32)CC1 [PIMETHIXENE]	> 100
CC[C@H]1CN2CC[C@H]1C[C@H]2[C@H](O)c1ccnc2ccc(OC)cc12 [HYDROQUININE]	15.5
CC(C)[C@H](N/C(=N\S(=O)(=O)c1ccc(Cl)cc1)N1C[C@@H](c2ccccc2)C(c2ccc(Cl)cc2)=N1)C(N)=O	> 100
COc1cccc2c1C(=O)c1c(O)c3c(c(O)c1C2=O)C[C@@](O)(C(=O)CO)C[C@@H]3O[C@H]1C[C@H](N)[C@H](O)[C@H](C)O1 [DOXORUBICIN]	7.94
COc1cc2c(cc1OC)C(c1cccc(Cl)c1)=NN=C(C)C2 [GIRISOPAM]	> 100
